Results as given in patent US20260137642A1 (CANCER PREVENTION PHARMACEUTICALS, INC., priority 2021, published 2026).

Assay: Phase I/II trial in new onset T1D: adverse events judged possibly or probably related to drug
Assay type: in vivo, human
Conditions: daily oral; for Adverse events possibly or probably related to drug: Hematologic, Grade 1 Neutropenia: neutrophil count < lower limit of normal but above 1500/mm^3
Source text: The primary efficacy measure was changes in pro-insulin to C-peptide ratios as a marker of β cell ER stress. The secondary objectives of the study were to elucidate the relationship between primary dose and markers of endoplasmic reticulum (ER) stress, polyamine concentrations, glycemic, and immunologic outcomes in persons with new onset T1D, and to characterize the dietary polyamine intake and urinary polyamine excretion of persons with recent-onset T1D. Secondary efficacy measures included other biomarkers of β cell stress, stimulated C-peptide values, and changes in T-cell subsets. This study was double-blind, placebo-controlled, 2:1 random assigned, phase I/II clinic trial for individuals with type 1 diabetes. The blinded dose-ranging study enrolled persons with new onset T1D with documented continued residual C-peptide production. […] After a 3 month wash-out period, the durability of effect was assessed. […] Males and females 12-40 years of age with a clinical diagnosis of T1D within 2-8 months of the time of visit 2; 2. […] Positive for any one of the following diabetes-related autoantibodies (mIAA, GADA, IA-2A, or ZnT8A); 4. Treatment naïve of any immunomodulatory agent; 5. […] Presence of any psychiatric disorder that will affect ability to participate in study, including psychiatric impairment or current use of anti-psychotic medication; 3. […] Chronic illness known to affect glucose metabolism (e.g. Cushing syndrome, polycystic ovarian disorder, cystic fibrosis) or taking medications that affect glucose metabolism (e.g. steroids, metformin); 5. Inability to swallow pills; 6. Hematologic abnormalities at screening (anemia, leukopenia (particularly neutropenia), or thrombocytopenia); 7. […] Female participants of child-bearing age must not be pregnant and agree to use an effective form of birth control or be abstinent during the study period; 9. BMI >95% for age and sex. […] The enrollment cohorts were as follows: […] [table] […] Possible drug-related expected AEs included mild-moderate nausea/vomiting/abdominal pain and diarrhea, moderate headache, upper respiratory infections, a pump site infection, and mild anemia. […] Adverse events judges by masked study investigators as possibly or probably related to drug are showing in Table 3.

SMILES: NCCCC(N)(C(=O)O)C(F)F (centres unmarked) [eflornithine, 2,5-diamino-2-(difluoromethyl) pentanoic acid]
- Adverse events possibly or probably related to drug: Abdominal Pain (125 mg/m^2 (n = 6)): 1
- Adverse events possibly or probably related to drug: Congestion (125 mg/m^2 (n = 6)): 0
- Adverse events possibly or probably related to drug: Cough (125 mg/m^2 (n = 6)): 0
- Adverse events possibly or probably related to drug: Diarrhea (125 mg/m^2 (n = 6)): 0
- Adverse events possibly or probably related to drug: Dizziness (125 mg/m^2 (n = 6)): 0
- Adverse events possibly or probably related to drug: Gastrointestinal (Total) (125 mg/m^2 (n = 6)): 1
- Adverse events possibly or probably related to drug: Hematologic, Anemia (125 mg/m^2 (n = 6)): 0
- Adverse events possibly or probably related to drug: Hot flashes associated with viral illness (125 mg/m^2 (n = 6)): 0
- Adverse events possibly or probably related to drug: Nausea (125 mg/m^2 (n = 6)): 0
- Adverse events possibly or probably related to drug: Nausea with IV placement (125 mg/m^2 (n = 6)): 0
- Adverse events possibly or probably related to drug: Neurologic, Headache (125 mg/m^2 (n = 6)): 1
- Adverse events possibly or probably related to drug: Other Viral Illness (125 mg/m^2 (n = 6)): 0
- Adverse events possibly or probably related to drug: Other infectious/immune, Pump site infection (125 mg/m^2 (n = 6)): 0
- Adverse events possibly or probably related to drug: Other, Hypoglycemia (125 mg/m^2 (n = 6)): 0
- Adverse events possibly or probably related to drug: Other, Urticaria/anaphylaxis (125 mg/m^2 (n = 6)): 0
- Adverse events possibly or probably related to drug: URI (125 mg/m^2 (n = 6)): 0
- Adverse events possibly or probably related to drug: Vomiting (125 mg/m^2 (n = 6)): 1
- Adverse events possibly or probably related to drug: Hematologic, Grade 1 Neutropenia (125 mg/m^2 (n = 6)): 1
- Adverse events possibly or probably related to drug: Abdominal Pain (250 mg/m^2 (n = 6)): 0
- Adverse events possibly or probably related to drug: Congestion (250 mg/m^2 (n = 6)): 0
- Adverse events possibly or probably related to drug: Cough (250 mg/m^2 (n = 6)): 0
- Adverse events possibly or probably related to drug: Diarrhea (250 mg/m^2 (n = 6)): 1
- Adverse events possibly or probably related to drug: Dizziness (250 mg/m^2 (n = 6)): 0
- Adverse events possibly or probably related to drug: Gastrointestinal (Total) (250 mg/m^2 (n = 6)): 1
- Adverse events possibly or probably related to drug: Hematologic, Anemia (250 mg/m^2 (n = 6)): 0
- Adverse events possibly or probably related to drug: Hot flashes associated with viral illness (250 mg/m^2 (n = 6)): 0
- Adverse events possibly or probably related to drug: Nausea (250 mg/m^2 (n = 6)): 0
- Adverse events possibly or probably related to drug: Nausea with IV placement (250 mg/m^2 (n = 6)): 0
- Adverse events possibly or probably related to drug: Neurologic, Headache (250 mg/m^2 (n = 6)): 0
- Adverse events possibly or probably related to drug: Other Viral Illness (250 mg/m^2 (n = 6)): 0
- Adverse events possibly or probably related to drug: Other infectious/immune, Pump site infection (250 mg/m^2 (n = 6)): 0
- Adverse events possibly or probably related to drug: Other, Hypoglycemia (250 mg/m^2 (n = 6)): 0
- Adverse events possibly or probably related to drug: Other, Urticaria/anaphylaxis (250 mg/m^2 (n = 6)): 0
- Adverse events possibly or probably related to drug: URI (250 mg/m^2 (n = 6)): 0
- Adverse events possibly or probably related to drug: Vomiting (250 mg/m^2 (n = 6)): 0
- Adverse events possibly or probably related to drug: Hematologic, Grade 1 Neutropenia (250 mg/m^2 (n = 6)): 0
- Adverse events possibly or probably related to drug: Abdominal Pain (500 mg/m^2 (n = 6)): 0
- Adverse events possibly or probably related to drug: Congestion (500 mg/m^2 (n = 6)): 0
- Adverse events possibly or probably related to drug: Cough (500 mg/m^2 (n = 6)): 0
- Adverse events possibly or probably related to drug: Diarrhea (500 mg/m^2 (n = 6)): 0
- Adverse events possibly or probably related to drug: Dizziness (500 mg/m^2 (n = 6)): 0
- Adverse events possibly or probably related to drug: Gastrointestinal (Total) (500 mg/m^2 (n = 6)): 0
- Adverse events possibly or probably related to drug: Hematologic, Anemia (500 mg/m^2 (n = 6)): 0
- Adverse events possibly or probably related to drug: Hot flashes associated with viral illness (500 mg/m^2 (n = 6)): 0
- Adverse events possibly or probably related to drug: Nausea (500 mg/m^2 (n = 6)): 0
- Adverse events possibly or probably related to drug: Nausea with IV placement (500 mg/m^2 (n = 6)): 0
- Adverse events possibly or probably related to drug: Neurologic, Headache (500 mg/m^2 (n = 6)): 0
- Adverse events possibly or probably related to drug: Other Viral Illness (500 mg/m^2 (n = 6)): 0
- Adverse events possibly or probably related to drug: Other infectious/immune, Pump site infection (500 mg/m^2 (n = 6)): 0
- Adverse events possibly or probably related to drug: Other, Hypoglycemia (500 mg/m^2 (n = 6)): 1
- Adverse events possibly or probably related to drug: Other, Urticaria/anaphylaxis (500 mg/m^2 (n = 6)): 0
- Adverse events possibly or probably related to drug: URI (500 mg/m^2 (n = 6)): 0
- Adverse events possibly or probably related to drug: Vomiting (500 mg/m^2 (n = 6)): 0
